What all share (test): NCI-60 cell line screen, 48 h
Assay [1] relates to LOX IMVI melanoma.
Assay [2] concerns U251 CNS.
For assay [3], the system named is M14 melanoma.
Assay [4] deals with HCC-2998 colon.
Assay [5] has as its system RXF 393 renal.
The test system of assay [6] is K-562 leukemia.
The test system of assay [7] is 786-0 renal.
Assay [8] deals with DU-145 prostate.
Assay [9] has as its system HT29 colon.
The test system of assay [10] is SR leukemia.

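Growth conditions: 96-well plates. Treatment: test compound, 48 hours, 5 concentrations. Analysis: linear interpolation between bracketing concentrations; unreached endpoints set to highest concentration. At the GI50, growth is halved. Definition used: TGI = concentration required for complete inhibition of growth.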

Here are results for eight molecules from PubChem BioAssay (NCI).

Turning to `COc1cccc(-c2nn(-c3ccccc3)cc2-c2ccnc(NCCNC(=O)Nc3ccc(Cl)c(Cl)c3)c2)c1`, the GI50 in [1] is 1660 nM; in assay [2] it was 2650 nM; in assay [3] it was 1670 nM; in assay [4] it was 1880 nM; in [5], 1200 nM; in assay [6], 3090 nM. The GI50 in assay [7] was 1550 nM; in assay [8], 3520 nM; in assay [9] it was 1910 nM; in [10] it was 1510 nM. The TGI in assay [1] was determined as 3210 nM; in assay [2], 7730 nM; in [3] it was 4050 nM; in assay [4] it was 3780 nM; in assay [5], 3150 nM; in assay [6], 11100 nM. Besides, the TGI in assay [7] turned out to be 3280 nM; in assay [8], 12700 nM; in [9] it was 5390 nM; in assay [10] it was 6020 nM.

For `COc1ccc2nc3ccc(OC)cc3c(SCCCN)c2c1`, the GI50 is 2220 nM in [1]; 9090 nM in assay [2]; 8480 nM in [3]; 13200 nM in [4]; 2420 nM in assay [5]; 1670 nM in assay [6]. The GI50 was 6850 nM in [7], 1810 nM in assay [8], 1910 nM in assay [9] and 1540 nM in assay [10]. The TGI in [1] is 5260 nM; in assay [2], more than 67300 nM; in assay [3] it was 31100 nM; in assay [4], 30700 nM; in [5] it was 9850 nM; in [6] it was 3890 nM. The TGI in assay [7] was determined as 15200 nM; in assay [8], 3260 nM; in [9], 4070 nM; in assay [10], 3640 nM.

For the molecule `c1ccc2c(c1)nc(NCCN1CCNCC1)c1c3ccccc3[nH]c21`, the GI50 was 295 nM in [1]; 377 nM in assay [2]; 1240 nM in assay [3]; 425 nM in assay [4]; 438 nM in assay [5]; 93.5 nM in assay [6]. Besides, the GI50 in assay [7] was 342 nM; in [8], 227 nM; in [9], 167 nM; in [10], 226 nM. The TGI in [1] came to 1030 nM; in assay [2] it was 1940 nM; in [3] it was 2810 nM; in assay [4] it was 1680 nM; in assay [5], 2040 nM; in assay [6], 2070 nM. The TGI in assay [7] worked out at 1600 nM; in assay [8] it was 1400 nM; in [9], 1530 nM; in [10], 1330 nM.

As for `CCOC(=O)c1[nH]c2c(c1C)-c1[nH]c(=O)c(S(=O)(=O)c3ccccc3)cc1SC2`, the GI50 was 31100 nM in assay [2]; 38800 nM in assay [3]; more than 100000 nM in [4]; 28400 nM in assay [5]; 23200 nM in [6]; 46300 nM in assay [7]. Moreover, the results for the GI50 in [8], in [9] and in assay [10] were 30600 nM, 40700 nM and 30300 nM, respectively. For the same molecule, the TGI in assay [2], in [3], in assay [4], in assay [5], in assay [6] and in assay [7] was more than 100000 nM throughout. The TGI in [8], in assay [9] and in assay [10] was more than 100000 nM in each case.

As to `CN1C(=O)c2cc(Cl)nc3c(NC(=O)c4cccc(Cl)c4)c(Cl)c(NC(=O)c4cccc(Cl)c4)c1c23`, the GI50 was 1210 nM in [1]; 1820 nM in assay [2]; 1470 nM in [3]; 1760 nM in assay [4]; 1670 nM in assay [5]; 1010 nM in assay [6]. Besides, the GI50 in assay [7] was 2690 nM; in [8] it was 2280 nM; in [9], 1970 nM; in assay [10] it was 580 nM. The TGI turned out to be 2580 nM in [1]; 3240 nM in assay [2]; 3030 nM in assay [3]; 3410 nM in assay [4]; 3120 nM in assay [5]; 2570 nM in assay [6]. In addition, the TGI in assay [7] is 7960 nM; in assay [8], 5190 nM; in [9], 4050 nM; in assay [10], 2950 nM.

Turning to `COc1cc2oc3ccccc3c(=O)c2cc1CSc1ccccc1N`, the TGI in assay [1] was more than 100000 nM; in assay [2], more than 100000 nM; in assay [3] it was more than 100000 nM; in [4], 29300 nM; in assay [5], more than 45500 nM; in assay [6], more than 100000 nM. Besides, the TGI was more than 100000 nM in assay [7], more than 84900 nM in assay [8], more than 100000 nM in assay [9] and 28300 nM in assay [10].

With `O=C1c2cccnc2C(=O)c2c1c(C(=O)OCCCN1CCOCC1)c1ccccn21`, the GI50 in assay [1] was less than 10 nM; in assay [3] it was less than 10 nM; in assay [4] it was less than 10 nM; in assay [5], less than 10 nM; in assay [6], less than 12.4 nM; in assay [7], 12.4 nM. Further, the GI50 in assay [8] was less than 10 nM; in [9] it was 354 nM; in assay [10], less than 10 nM. Besides, the TGI was 15.2 nM in assay [1]; 69.9 nM in assay [3]; 3150 nM in assay [4]; 23.5 nM in assay [5]; 40.3 nM in assay [7]; 1290 nM in assay [8]. Besides, the TGI in assay [9] was 2180 nM; in assay [10], more than 100000 nM.

Turning to `O=C(N[C@@H]1CCCc2ccccc21)[C@H](CCC(=O)N1CCN(C2CCCCC2)CC1)N1C(=O)[C@@H](N2C(=O)OC[C@@H]2c2ccccc2)[C@H]1/C=C/c1ccccc1`, the GI50 is 1680 nM in assay [1]; 2200 nM in [2]; 1470 nM in assay [3]; 2270 nM in assay [4]; 1710 nM in assay [5]; 1860 nM in [7]. The GI50 in assay [8] was 2900 nM; in assay [9], 1990 nM; in assay [10], 2680 nM. Besides, the TGI turned out to be 3410 nM in assay [1]; 5420 nM in assay [2]; 3310 nM in assay [3]; 5370 nM in [4]; 3340 nM in assay [5]; 4070 nM in assay [7]. Moreover, the TGI in [8] was 19300 nM; in assay [9], 5210 nM; in assay [10], more than 100000 nM.
